The assay has as its target T1, Recombinant human renin (Homo sapiens, UniProt P00797).
T1 construct: isolate the active form (residues 67-406); made in house; host or cells: FreeStyle 293-F cells, transient expression of pcDNA3.1(+)/hREN
T1 sequence (P00797 67-406): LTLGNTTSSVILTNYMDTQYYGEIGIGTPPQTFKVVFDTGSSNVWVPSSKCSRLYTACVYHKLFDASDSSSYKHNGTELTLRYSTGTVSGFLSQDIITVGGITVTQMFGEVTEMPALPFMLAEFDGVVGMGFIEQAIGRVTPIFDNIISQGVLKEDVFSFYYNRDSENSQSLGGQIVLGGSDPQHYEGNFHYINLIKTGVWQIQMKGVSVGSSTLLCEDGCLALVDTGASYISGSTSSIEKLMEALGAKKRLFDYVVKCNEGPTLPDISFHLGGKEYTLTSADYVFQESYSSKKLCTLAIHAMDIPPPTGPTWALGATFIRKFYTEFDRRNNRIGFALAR
Briefly: In vitro enzymatic activity assay of renin inhibitors (fluorescence, QXL520/HiLyteFluo488 peptide substrate). Format: biochemical. To be noted: recombinant human renin 3 nM, 1 μM substrate, pre-incubated 10 minutes at 37° C., incubation one hour, pH 7.4, 5% DMSO; read-out: IC50 of Exemplified Compounds Against Renin.

This note sets out measurements from patent US8148367B2 (Takeda Pharmaceutical Company Limited, priority 2008, dated 2012).

With `COCCOc1cccc(Cn2c(C(=O)N3CCNCC3)c(-c3ccccc3)n(-c3ccccc3C)c2=O)c1` [Example 186, 1-(3-(2-Methoxyethoxy)benzyl)-4-phenyl-5-(piperazine-1-carbonyl)-3-o-tolyl-1H-imidazol-2(3H)-one], the 50% inhibitory concentration (IC50) lay in the range of 100 to 500 nM. To `COCCOc1cccc(Cn2c(C(=O)N3CCNCC3)c(-c3ccccc3)n(-c3ccccc3OC)c2=O)c1` [Example 187, 1-(3-(2-Methoxyethoxy)benzyl)-3-(2-methoxyphenyl)-4-phenyl-5-(piperazine-1-carbonyl)-1H-imidazol-2(3H)-one] belongs greater than 1000 nM. To `COc1ccccc1-n1c(-c2ccccc2)c(C(=O)N2CCNCC2)n(Cc2cccc(OCCOc3ccccc3)c2)c1=O` [Example 188, 1-(2-Methoxyphenyl)-3-(3-(2-phenoxyethoxy)benzyl)-5-phenyl-4-(piperazine-1-carbonyl)-1H-imidazol-2(3H)-one] belongs 100 to 500 nM; to `O=C(c1c(-c2ccccc2)n(-c2cccc(N3CCOCC3)c2)c(=O)n1CC1CCCCC1)N1CCNCC1` [Example 189, 1-(Cyclohexylmethyl)-3-(3-morpholinophenyl)-4-phenyl-5-(piperazine-1-carbonyl)-1H-imidazol-2(3H)-one], greater than 1000 nM. In the case of `O=C(c1c(-c2ccccc2)n(-c2cccc(N3CCOCC3)c2)c(=O)n1Cc1ccc(F)c(F)c1)N1CCNCC1` [Example 190, 1-(3,4-Difluorobenzyl)-3-(3-morpholinophenyl)-4-phenyl-5-(piperazine-1-carbonyl)-1H-imidazol-2(3H)-one], the IC50 was in the range of 500 to 1000 nM. To `O=C(c1c(-c2ccccc2)n(-c2cccc(N3CCOCC3)c2)c(=O)n1Cc1cccc(OCCOc2ccccc2)c1)N1CCNCC1` [Example 191, 1-(3-Morpholinophenyl)-3-(3-(2-phenoxyethoxy)benzyl)-5-phenyl-4-(piperazine-1-carbonyl)-1H-imidazol-2(3H)-one] belongs 100 to 500 nM; to `COCCCOc1cccc(-n2c(-c3ccccc3)c(C(=O)N3CCNCC3)n(Cc3cccc(OCCOC)c3)c2=O)c1` [Example 192, 1-(3-(2-Methoxyethoxy)benzyl)-3-(3-(3-methoxypropoxy)phenyl)-4-phenyl-5-(piperazine-1-carbonyl)-1H-imidazol-2(3H)-one], greater than 1000 nM; to `O=C(c1c(-c2ccccc2)n(-c2cccc(N3CCOCC3)c2)c(=O)n1CCCNS(=O)(=O)c1ccccc1F)N1CCNCC1` [Example 193, 2-Fluoro-N-(3-(3-(3-morpholinophenyl)-2-oxo-4-phenyl-5-(piperazine-1-carbonyl)-2,3-dihydro-1H-imidazol-1-yl)propyl)benzenesulfonamide], greater than 1000 nM. As to `O=C(c1c(-c2ccccc2)n(-c2cccc(N3CCOCC3)c2)c(=O)n1CCCNS(=O)(=O)c1ccccc1Cl)N1CCNCC1` [Example 194, 2-Chloro-N-(3-(3-(3-morpholinophenyl)-2-oxo-4-phenyl-5-(piperazine-1-carbonyl)-2,3-dihydro-1H-imidazol-1-yl)propyl)benzenesulfonamide], the IC50 is less than 100 nM. To `O=C(c1c(-c2ccccc2)n(-c2cccc(N3CCOCC3)c2)c(=O)n1CCCNS(=O)(=O)c1cccc(Cl)c1)N1CCNCC1` [Example 195, 3-Chloro-N-(3-(3-(3-morpholinophenyl)-2-oxo-4-phenyl-5-(piperazine-1-carbonyl)-2,3-dihydro-1H-imidazol-1-yl)propyl)benzenesulfonamide] belongs 500 to 1000 nM; to `CC(C)S(=O)(=O)NCCCn1c(C(=O)N2CCNCC2)c(-c2ccccc2)n(-c2cccc(N3CCOCC3)c2)c1=O` [Example 196, N-(3-(3-(3-Morpholinophenyl)-2-oxo-4-phenyl-5-(piperazine-1-carbonyl)-2,3-dihydro-1H-imidazol-1-yl)propyl)propane-2-sulfonamide], greater than 1000 nM; to `Cc1ccccc1S(=O)(=O)NCCCn1c(C(=O)N2CCNCC2)c(-c2ccccc2)n(-c2cccc(N3CCOCC3)c2)c1=O` [Example 197, 2-Methyl-N-(3-(3-(3-morpholinophenyl)-2-oxo-4-phenyl-5-(piperazine-1-carbonyl)-2,3-dihydro-1H-imidazol-1-yl)propyl)benzenesulfonamide], greater than 1000 nM.

Regarding `COc1cccc(S(=O)(=O)NCCCn2c(C(=O)N3CCNCC3)c(-c3ccccc3)n(-c3cccc(N4CCOCC4)c3)c2=O)c1` [Example 198, 3-Methoxy-N-(3-(3-(3-morpholinophenyl)-2-oxo-4-phenyl-5-(piperazine-1-carbonyl)-2,3-dihydro-1H-imidazol-1-yl)propyl)benzenesulfonamide], the IC50 fell in the range of 100 to 500 nM. Regarding `COc1ccc(S(=O)(=O)NCCCn2c(C(=O)N3CCNCC3)c(-c3ccccc3)n(-c3cccc(N4CCOCC4)c3)c2=O)cc1` [Example 199, 4-Methoxy-N-(3-(3-(3-morpholinophenyl)-2-oxo-4-phenyl-5-(piperazine-1-carbonyl)-2,3-dihydro-1H-imidazol-1-yl)propyl)benzenesulfonamide], the IC50 is 500 to 1000 nM. To `O=C(NCCCn1c(C(=O)N2CCNCC2)c(-c2ccccc2)n(-c2cccc(N3CCOCC3)c2)c1=O)Nc1ccccc1` [Example 200, 1-(3-(3-(3-Morpholinophenyl)-2-oxo-4-phenyl-5-(piperazine-1-carbonyl)-2,3-dihydro-1H-imidazol-1-yl)propyl)-3-phenylurea] belongs 500 to 1000 nM; to `O=C(c1c(-c2ccccc2)n(-c2cccc(N3CCOCC3)c2)c(=O)n1CCCNS(=O)(=O)c1ccc(Cl)cc1)N1CCNCC1` [Example 202, 4-Chloro-N-(3-(3-(3-morpholinophenyl)-2-oxo-4-phenyl-5-(piperazine-1-carbonyl)-2,3-dihydro-1H-imidazol-1-yl)propyl)benzenesulfonamide], 500 to 1000 nM; to `Cc1ccccc1-n1c(-c2ccccc2)c(C(=O)N2CCNCC2)n(CCNS(=O)(=O)c2ccccc2F)c1=O` [Example 203, 2-Fluoro-N-(2-(2-oxo-4-phenyl-5-(piperazine-1-carbonyl)-3-o-tolyl-2,3-dihydro-1H-imidazol-1-yl)ethyl)benzenesulfonamide], 500 to 1000 nM.

Regarding `Cc1ccccc1-n1c(-c2ccccc2)c(C(=O)N2CCNCC2)n(CCNS(=O)(=O)c2ccccc2Cl)c1=O` [Example 204, 2-Chloro-N-(2-(2-oxo-4-phenyl-5-(piperazine-1-carbonyl)-3-o-tolyl-2,3-dihydro-1H-imidazol-1-yl)ethyl)benzenesulfonamide], the IC50 is 500 to 1000 nM. To `Cc1ccccc1-n1c(-c2ccccc2)c(C(=O)N2CCNCC2)n(CCNS(=O)(=O)c2cccc(Cl)c2)c1=O` [Example 205, 3-Chloro-N-(2-(2-oxo-4-phenyl-5-(piperazine-1-carbonyl)-3-o-tolyl-2,3-dihydro-1H-imidazol-1-yl)ethyl)benzenesulfonamide] belongs greater than 1000 nM; to `Cc1ccccc1-n1c(-c2ccccc2)c(C(=O)N2CCNCC2)n(CCNS(=O)(=O)C(C)C)c1=O` [Example 206, N-(2-(2-Oxo-4-phenyl-5-(piperazine-1-carbonyl)-3-o-tolyl-2,3-dihydro-1H-imidazol-1-yl)ethyl)propane-2-sulfonamide], 500 to 1000 nM; to `Cc1ccccc1-n1c(-c2ccccc2)c(C(=O)N2CCNCC2)n(CCNS(=O)(=O)c2ccc(Cl)cc2)c1=O` [Example 207, 4-Chloro-N-(2-(2-oxo-4-phenyl-5-(piperazine-1-carbonyl)-3-o-tolyl-2,3-dihydro-1H-imidazol-1-yl)ethyl)benzenesulfonamide], greater than 1000 nM. To `Cc1ccccc1-n1c(-c2ccccc2)c(C(=O)N2CCNCC2)n(CCNS(=O)(=O)c2ccccc2C)c1=O` [Example 208, 2-Methyl-N-(2-(2-oxo-4-phenyl-5-(piperazine-1-carbonyl)-3-o-tolyl-2,3-dihydro-1H-imidazol-1-yl)ethyl)benzenesulfonamide] belongs 500 to 1000 nM; to `COc1cccc(S(=O)(=O)NCCn2c(C(=O)N3CCNCC3)c(-c3ccccc3)n(-c3ccccc3C)c2=O)c1` [Example 209, 3-Methoxy-N-(2-(2-oxo-4-phenyl-5-(piperazine-1-carbonyl)-3-o-tolyl-2,3-dihydro-1H-imidazol-1-yl)ethyl)benzenesulfonamide], greater than 1000 nM; to `COc1ccc(S(=O)(=O)NCCn2c(C(=O)N3CCNCC3)c(-c3ccccc3)n(-c3ccccc3C)c2=O)cc1` [Example 210, 4-Methoxy-N-(2-(2-oxo-4-phenyl-5-(piperazine-1-carbonyl)-3-o-tolyl-2,3-dihydro-1H-imidazol-1-yl)ethyl)benzenesulfonamide], greater than 1000 nM. To `Cc1ccccc1-n1c(-c2ccccc2)c(C(=O)N2CCNCC2)n(CCNC(=O)Nc2ccccc2)c1=O` [Example 211, 1-(2-(2-Oxo-4-phenyl-5-(piperazine-1-carbonyl)-3-o-tolyl-2,3-dihydro-1H-imidazol-1-yl)ethyl)-3-phenylurea] belongs 100 to 500 nM; to `Cc1ccccc1-n1c(-c2ccccc2)c(C(=O)N2CCNCC2)n(CCNC(=O)Nc2ccccc2Cl)c1=O` [Example 212, 1-(2-Chlorophenyl)-3-(2-(2-oxo-4-phenyl-5-(piperazine-1-carbonyl)-3-o-tolyl-2,3-dihydro-1H-imidazol-1-yl)ethyl)urea], 500 to 1000 nM.

For the compound `Cc1ccccc1-n1c(-c2ccccc2)c(C(=O)N2CCNCC2)n(CCNC(=O)Nc2ccc(Cl)cc2)c1=O` [Example 213, 1-(4-Chlorophenyl)-3-(2-(2-oxo-4-phenyl-5-(piperazine-1-carbonyl)-3-o-tolyl-2,3-dihydro-1H-imidazol-1-yl)ethyl)urea], the IC50 was in the range of 100 to 500 nM.
